Assays:
Pythium aphanidermatum = assay: Microplate based screening of bioactivity against Pythium aphanidermatum; type: cell-based; conditions: 10 μl of 250 ppm solution + 40 μl inoculum, activity grade x repeats x days of activity/252 x 100
Experimental: Grow Pythium aphanidermatum on SCH in 90 mm petri plates to get sporulating hyphae. Each plate will produce 50 ml of zoospores suspension which will be enough for bioactivity screening for ten 96-well plates.
Add the same volume (as the suspension) sterile fridge cold 2:PDBC to get 500-2000 spores/ml inoculum. This dilution will result in the amount of 25-100 zoospores in each well. […]
Screening of Plates: • 1) Read out the plate at […]: 3d, 7d, 14d and 21d following the assay start • 2) Calculate the difference of absorbance between each readout and the readout at zero time • 3) Calculate the percentage of growth inhibition of each well at each time point. […]

Sclerotinia sclerotiorum = assay: Microplate based screening of bioactivity against Sclerotinia sclerotiorum; type: cell-based; conditions: 10 μl of 250 ppm solution + 40 μl inoculum, activity grade x repeats x days of activity/252 x 100
Experimental: Diluted in DMSO purified Licochalcone C was added to microplate wells and mixed with 50 μl of hyphae suspension and growth of the fungus starting from blended hyphae was monitored by visual inspection. Dilute the inoculum stock 1:10 in PDBC—2 ml in 20 ml, or calculate the dilution needed, to prepare final concentration of 2000 CFU/ml. The final number of hyphae should be 100 CFU in each well. Microplate Preparation for Activity Experiment: • 1) Take a stock solution of purified 1% Licochalcone C in DMSO from the −20 freezer and thaw it on the bench. • 2) Take 1 μl of stock solution of 1% Licochalcone C and dilute up to 250 ppm with 39 μl of water. • 3) Take 10 μl of the diluted (250 ppm) Licochalcone C solution into the wells of the microplate using a multi-pipette. • 4) Add 40 μl of vigorously mixed spore suspension inoculum to the wells of the microplate using a multi-pipette. • 5) Seal the plate with transparent sealer • 6) Shake the plate for 10 min at 2000 RPM to mix the Licochalcone C with the hyphae suspension • 7) Centrifugate the plate at 1000RCF for is and stop to collect the liquid at the bottom of the plate. • 8) Collect the plates on the bench until all microplates are ready for incubation. • 9) Insert microplates into a plastic box and put the box in the incubator at 21° C. […]

`COc1c(/C=C/C(=O)c2ccc(O)cc2)ccc(O)c1CC=C(C)C` [Licochalcone C, (E)-3-[4-hydroxy-2-methoxy-3-(3-methylbut-2-enyl)phenyl]-1-(4-hydroxyphenyl)prop-2-en-1-one] was tested, and the “Relative Activity value (%)” value (Pythium aphanidermatum) was 100% and the “Relative Activity value (%)” value (Sclerotinia sclerotiorum) was 13%.

Source: patent US20240049707A1, “PESTICIDE COMPOSITIONS OF LICOCHALCONE C” (METABOLIC INSIGHTS LTD., priority 2020, published 2024)
